Test results as given in patent US6596309B2, “Stable pharmaceutical dosage form for paroxetin anhydrate” (BASF Aktiengesellschaft, priority 1999, dated 2003).

Experiment: Check for conversion of the anhydrate to the hemihydrate in soft gelatin capsules (infrared spectroscopy or DSC)
Assay type: physicochemical
Conditions: paroxetin anhydrate incorporated into soft gelatin capsules; lipophilic carrier silicone oil
From the text: The incorporation of paroxetin anhydrate into soft gelatin capsules was surprising because soft gelatin contains very large amounts of water during the encapsulation process. […] However, the use of glycerol in the preparation of the capsule coat should be avoided.
A test for absence of the hemihydrate can be performed very simply by infrared spectroscopy or differential scanning calorimetry (DSC), as described by P.C. Baxter et al. in the International Journal of Pharmaceutics, 42 (1988), pages 135 to 143.

Fc1ccc([C@@H]2CCNC[C@H]2COc2ccc3c(c2)OCO3)cc1 (relative stereo) [paroxetin anhydrate, (—)-trans-4-(4′-fluorophenyl)-3-(3′,4′-methylenedioxyphenoxymethyl)-piperidine]
conversion to the hemihydrate: did not occur
